# Assays:
# Format in all cases: in vivo
# [1] = system: Zea mays (ZEAMX); assay: Post-emergence crop plant compatibility, greenhouse pot test; conditions: vs untreated controls
# How it was run: (§1)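 Visual % damage vs untreated controls, scored ~3 weeks post-spray (100% = dead, 0% = as control). Plants in sandy loam, greenhouse; treated at one-leaf stage, 2–3 wk after sowing. WP/EC, aqueous, 0.5% additive, 600 l/ha. Suffixes a/b/c = different dosages.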
# [2] = system: Triticum aestivum (TRZAS); assay: as above; conditions: vs untreated controls
# How it was run: as §1
# [3] = system: Brassica napus (BRSNW); assay: as above; conditions: 1.25 g/ha, vs untreated controls
# How it was run: as §1
# [4] = system: Alopecurus myosuroides (ALOMY); assay: Post-emergence herbicidal action, greenhouse pot test (also comparative test C); conditions: rated visually after about 3 weeks vs untreated controls, 100% = plants have died
# How it was run: (§2)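 Greenhouse pot plants in sandy loam were sprayed post-emergence at the one-leaf stage (2–3 weeks after sowing) with WP or EC formulations plus 0.5% additive at 600 l/ha water. Activity was rated visually after about 3 weeks versus untreated controls (100% = dead, 0% = like control); rates were 20 g/ha or less, and 5 g/ha or less in the comparative test.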
# [5] = system: Matricaria inodora (MATIN); assay: as above
# How it was run: as §2
# [6] = system: Setaria viridis (SETVI); assay: as above; conditions: for Post-emergence action against SETVI: 20 g/ha
# How it was run: as §2
# [7] = system: Echinochloa crus-galli (ECHCG); assay: as above; conditions: for Post-emergence action at 1.25 g/ha against ECHCG in %: rated visually after about 3 weeks vs untreated controls, 100% = plants have died
# How it was run: as §2
# [8] = system: Amaranthus retroflexus (AMARE); assay: Post-emergence herbicidal action, greenhouse pot test; conditions: rated visually after about 3 weeks vs untreated controls, 100% = plants have died
# How it was run: (§3)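 Activity was scored by eye about 3 weeks after treatment against untreated plants, where 100% means dead plants and 0% means no difference. Plants at the one-leaf stage received a foliar spray of WP or EC formulations in water plus 0.5% additive (600 l/ha, up to 20 g/ha). Plants were grown in sandy loam pots in a greenhouse for 2–3 weeks before spraying.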
# [9] = system: Polygonum convolvulus (POLCO); assay: as above
# How it was run: as §3
# [10] = system: Abutilon theophrasti (ABUTH); assay: as above; conditions: rated visually after about 3 weeks vs untreated controls, 100% = plants have died
# How it was run: as §3
# [11] = system: Veronica persica (VERPE); assay: as above
# How it was run: as §3
# [12] = system: Stellaria media (STEME); assay: as above
# How it was run: as §3
# [13] = system: Pharbitis purpurea (PHBPU); assay: as above
# How it was run: as §3
# [14] = system: Hordeum murinum (HORMU); assay: as above; conditions: rated visually after about 3 weeks vs untreated controls, 100% = plants have died
# How it was run: as §3
# [15] = system: Avena fatua (AVEFA); assay: as above; conditions: 20 g/ha, rated visually after about 3 weeks vs untreated controls, 100% = plants have died
# How it was run: as §3
# [16] = system: Viola tricolor (VIOTR); assay: as above
# How it was run: as §3
# [17] = system: Lolium rigidum (LOLRI); assay: as above; conditions: for Post-emergence action against LOLRI in %: dosage 20 g/ha
# How it was run: as §3
# [18] = system: Oryza sativa (ORYSA); assay: Post-emergence crop plant compatibility, greenhouse pot test (also comparative test C); conditions: 1.25 g/ha, vs untreated controls
# How it was run: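 Visual damage versus untreated plants (0% = like control, 100% = plants died) was scored about 3 weeks after a post-emergence spray in greenhouse pots. Treatment: one-leaf stage, WP or EC in water at 600 l/ha with 0.5% additive; a/b/c mark different dosages on the same crop.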
structure (smiles),measurement,setting,value
Cn1c(C(F)(F)F)cc(=O)n(-c2cc(Sc3ccccc3OCC(=O)OCC3CCCO3)c(Cl)cc2F)c1=O (racemic) [I.1-71],Post-emergence action against ZEAMX (crop plant compatibility),[1]; 1.25 g/ha,20%
same,Post-emergence action against TRZAS (crop plant compatibility),[2]; 1.25 g/ha,10%
same,Post-emergence action against TRZAS (crop plant compatibility),[2]; 5 g/ha,20%
same,Post-emergence action against BRSNW (crop plant compatibility),[3],20%
same,Post-emergence action at 5 g/ha against ALOMY in %,[4],80%
same,Post-emergence action at 20 g/ha against ALOMY in %,[4],90%
same,Post-emergence action against MATIN in %,[5]; dosage 1.25 g/ha,80%
same,Post-emergence action against MATIN in %,[5]; dosage 5 g/ha,90%
same,Post-emergence action against MATIN in %,[5]; dosage 20 g/ha,100%
same,Post-emergence action against SETVI,[6],100%
same,Post-emergence action against SETVI in %,[6]; dosage 1.25 g/ha,100%
same,Post-emergence action against SETVI in %,[6]; dosage 5 g/ha,100%
same,Post-emergence action at 1.25 g/ha against ECHCG in %,[7],100%
same,Post-emergence action against ECHCG in %,[7]; dosage 20 g/ha,100%
same,Post-emergence action at 1.25 g/ha against AMARE in %,[8],100%
same,Post-emergence action at 5 g/ha against AMARE in %,[8],100%
same,Post-emergence action at 20 g/ha against AMARE in %,[8],100%
same,Post-emergence action against POLCO in %,[9]; dosage 1.25 g/ha,100%
same,Post-emergence action against POLCO in %,[9]; dosage 5 g/ha,100%
same,Post-emergence action against POLCO in %,[9]; dosage 20 g/ha,100%
same,Post-emergence action at 1.25 g/ha against ABUTH in %,[10],100%
same,Post-emergence action at 5 g/ha against ABUTH in %,[10],100%
same,Post-emergence action at 20 g/ha against ABUTH in %,[10],100%
same,Post-emergence action against VERPE,[11]; 1.25 g/ha,100%
same,Post-emergence action against VERPE,[11]; 5 g/ha,100%
same,Post-emergence action against VERPE,[11]; 20 g/ha,100%
same,Post-emergence action against STEME,[12]; 1.25 g/ha,90%
same,Post-emergence action against STEME,[12]; 5 g/ha,100%
same,Post-emergence action against STEME,[12]; 20 g/ha,100%
same,Post-emergence action against PHBPU in %,[13]; dosage 1.25 g/ha,100%
same,Post-emergence action against PHBPU in %,[13]; dosage 5 g/ha,100%
same,Post-emergence action against PHBPU in %,[13]; dosage 20 g/ha,100%
same,Post-emergence action at 5 g/ha against HORMU in %,[14],80%
same,Post-emergence action at 20 g/ha against HORMU in %,[14],90%
same,Post-emergence action at 20 g/ha against AVEFA in %,[15],80%
same,Post-emergence action against VIOTR,[16]; 1.25 g/ha,100%
same,Post-emergence action against VIOTR,[16]; 5 g/ha,100%
same,Post-emergence action against VIOTR,[16]; 20 g/ha,100%
COCCOCCOC(=O)COc1ccccc1Sc1cc(-n2c(=O)cc(C(F)(F)F)n(C)c2=O)c(F)cc1Cl [I.1-23],Post-emergence action against ZEAMX (crop plant compatibility),[1]; 1.25 g/ha,10%
same,Post-emergence action against TRZAS (crop plant compatibility),[2]; 1.25 g/ha,20%
same,Post-emergence action against BRSNW (crop plant compatibility),[3],20%
same,Post-emergence action at 5 g/ha against ALOMY in %,[4],90%
same,Post-emergence action at 20 g/ha against ALOMY in %,[4],90%
same,Post-emergence action against MATIN in %,[5]; dosage 1.25 g/ha,80%
same,Post-emergence action against MATIN in %,[5]; dosage 5 g/ha,100%
same,Post-emergence action against MATIN in %,[5]; dosage 20 g/ha,100%
same,Post-emergence action against SETVI,[6],100%
same,Post-emergence action against SETVI in %,[6]; dosage 1.25 g/ha,100%
same,Post-emergence action against SETVI in %,[6]; dosage 5 g/ha,100%
same,Post-emergence action at 1.25 g/ha against ECHCG in %,[7],90%
same,Post-emergence action against ECHCG in %,[7]; dosage 5 g/ha,100%
same,Post-emergence action against ECHCG in %,[7]; dosage 20 g/ha,100%
same,Post-emergence action at 1.25 g/ha against AMARE in %,[8],100%
same,Post-emergence action at 5 g/ha against AMARE in %,[8],100%
same,Post-emergence action at 20 g/ha against AMARE in %,[8],100%
same,Post-emergence action against POLCO in %,[9]; dosage 1.25 g/ha,100%
same,Post-emergence action against POLCO in %,[9]; dosage 5 g/ha,100%
same,Post-emergence action against POLCO in %,[9]; dosage 20 g/ha,100%
same,Post-emergence action at 1.25 g/ha against ABUTH in %,[10],100%
same,Post-emergence action at 5 g/ha against ABUTH in %,[10],100%
same,Post-emergence action at 20 g/ha against ABUTH in %,[10],100%
same,Post-emergence action against VERPE,[11]; 1.25 g/ha,100%
same,Post-emergence action against VERPE,[11]; 5 g/ha,100%
same,Post-emergence action against VERPE,[11]; 20 g/ha,100%
same,Post-emergence action against STEME,[12]; 1.25 g/ha,80%
same,Post-emergence action against STEME,[12]; 5 g/ha,100%
same,Post-emergence action against STEME,[12]; 20 g/ha,100%
same,Post-emergence action against PHBPU in %,[13]; dosage 1.25 g/ha,100%
same,Post-emergence action against PHBPU in %,[13]; dosage 5 g/ha,100%
same,Post-emergence action against PHBPU in %,[13]; dosage 20 g/ha,100%
same,Post-emergence action at 5 g/ha against HORMU in %,[14],80%
same,Post-emergence action at 20 g/ha against HORMU in %,[14],100%
same,Post-emergence action against LOLRI in %,[17],80%
same,Post-emergence action at 20 g/ha against AVEFA in %,[15],80%
same,Post-emergence action against VIOTR,[16]; 1.25 g/ha,100%
same,Post-emergence action against VIOTR,[16]; 5 g/ha,100%
same,Post-emergence action against VIOTR,[16]; 20 g/ha,100%
same,Post-emergence action against ORYSA (crop plant compatibility),[18],20%
COCCCOC(=O)COc1ccccc1Sc1cc(-n2c(=O)cc(C(F)(F)F)n(C)c2=O)c(F)cc1Cl [I.1-26],Post-emergence action against ZEAMX (crop plant compatibility),[1]; 1.25 g/ha,10%
same,Post-emergence action against ZEAMX (crop plant compatibility),[1]; 5 g/ha,20%
same,Post-emergence action against BRSNW (crop plant compatibility),[3],20%
same,Post-emergence action at 5 g/ha against ALOMY in %,[4],80%
same,Post-emergence action at 20 g/ha against ALOMY in %,[4],90%
same,Post-emergence action against MATIN in %,[5]; dosage 1.25 g/ha,80%
same,Post-emergence action against MATIN in %,[5]; dosage 5 g/ha,80%
same,Post-emergence action against MATIN in %,[5]; dosage 20 g/ha,100%
same,Post-emergence action against SETVI,[6],100%
same,Post-emergence action against SETVI in %,[6]; dosage 1.25 g/ha,100%
same,Post-emergence action against SETVI in %,[6]; dosage 5 g/ha,100%
same,Post-emergence action at 1.25 g/ha against ECHCG in %,[7],90%
same,Post-emergence action against ECHCG in %,[7]; dosage 5 g/ha,90%
same,Post-emergence action against ECHCG in %,[7]; dosage 20 g/ha,100%
same,Post-emergence action at 1.25 g/ha against AMARE in %,[8],100%
same,Post-emergence action at 5 g/ha against AMARE in %,[8],100%
same,Post-emergence action at 20 g/ha against AMARE in %,[8],100%
same,Post-emergence action against POLCO in %,[9]; dosage 1.25 g/ha,100%
same,Post-emergence action against POLCO in %,[9]; dosage 5 g/ha,100%
same,Post-emergence action against POLCO in %,[9]; dosage 20 g/ha,100%
same,Post-emergence action at 1.25 g/ha against ABUTH in %,[10],100%
same,Post-emergence action at 5 g/ha against ABUTH in %,[10],100%
same,Post-emergence action at 20 g/ha against ABUTH in %,[10],100%
same,Post-emergence action against VERPE,[11]; 1.25 g/ha,100%
same,Post-emergence action against VERPE,[11]; 5 g/ha,100%
same,Post-emergence action against VERPE,[11]; 20 g/ha,100%
same,Post-emergence action against STEME,[12]; 1.25 g/ha,100%
same,Post-emergence action against STEME,[12]; 5 g/ha,100%
same,Post-emergence action against STEME,[12]; 20 g/ha,100%
same,Post-emergence action against PHBPU in %,[13]; dosage 1.25 g/ha,100%
same,Post-emergence action against PHBPU in %,[13]; dosage 5 g/ha,100%
same,Post-emergence action against PHBPU in %,[13]; dosage 20 g/ha,100%
same,Post-emergence action at 5 g/ha against HORMU in %,[14],80%
same,Post-emergence action at 20 g/ha against HORMU in %,[14],90%
same,Post-emergence action at 5 g/ha against LOLRI in %,"[17]; 5 g/ha, rated visually after about 3 weeks vs untreated controls, 100% = plants have died",80%
same,Post-emergence action against LOLRI in %,[17],90%
same,Post-emergence action at 20 g/ha against AVEFA in %,[15],80%
same,Post-emergence action against VIOTR,[16]; 1.25 g/ha,100%
same,Post-emergence action against VIOTR,[16]; 5 g/ha,100%
same,Post-emergence action against VIOTR,[16]; 20 g/ha,100%
same,Post-emergence action against ORYSA (crop plant compatibility),[18],10%

# From patent publication US20240025862A1, “SUBSTITUTED N-PHENYLURACILS AND SALTS THEREOF, AND USE THEREOF AS HERBICIDAL ACTIVE SUBSTANCES” (Bayer Aktiengesellschaft, priority 2020, published 2024)
